Experimental data as given in article PMC8894927, “Oxylipin signaling in salt-stressed soybean is modulated by ligand-dependent interaction of Class II acyl-CoA-binding proteins with lipoxygenase” (The Plant Cell, 2021).
“And” between values parts separate entries of the source, which are not always exact repeats. Equal values may be shown once. One block for each molecule: values may come before it.

Experiments:
[1] = system: GmACBP4.1_33–354 interaction with GmPLDα1:StrepII; assay: Strep-Tactin pull-down assay with supplemented acyl-CoAs; assay type: binding, soybean; conditions: acyl-CoA 12.5–100 μM, versus control without acyl-CoA
Excerpt: Figure 6 Specific acyl-CoA species facilitate GmACBP4 interaction with VLXB and GmPLDα1. A, Strep-Tactin pull-down assays. […] (His)6-GmACBP4.1_33–354 were detected in eluates by immunoblotting using anti-ACBP3 antibodies. […] Input lanes represent 1% protein. Arrowheads indicate target bands of 40-kD (His)6-GmACBP4.1_33–354 (apparent: 50 kD). The bound protein fraction was quantified densitometrically. […] B–C, Strep-Tactin pull-down assays with supplemented acyl-CoAs. […] Input lanes represent 5% proteins in (B) or 10% proteins in (C). Arrowheads indicate target bands of 40-kD (His)6-GmACBP4.1_33–354 (apparent: 50kD).
Strep-Tactin pull-down assays were performed using Strep-Tactin XT resins (IBA) following the manufacturer’s instructions. Briefly, 5 μL of resins with/without prebound VLXB:StrepII or GmPLDα1:StrepII (0.5 μM) were agitated with GmACBP4.1_33–354 (0.5 μM) and acyl-CoAs (0, 12.5, 25, 50, and 100 μM) in Buffer W containing 0.1 M Tris–HCl (pH 7), 0.15 M NaCl, 1 mM EDTA and 0.05% (w/v) Triton X-100 at 4°C for 2 h. After three washes in Buffer W, bound proteins were eluted in Buffer W with 50 mM biotin, and analyzed by immunoblotting using anti-ACBP3.1 antibodies.

[2] = system: GmACBP4.1_33–354 interaction with VLXB:StrepII; assay: as above; assay type: binding, soybean
(His)6-GmACBP4.1_33–354 [3] = assay: Isothermal titration calorimetry of acyl-CoA binding (WT protein); parameters: species or system soybean; conditions: ITC at 25°C; 15 μM protein titrated with 200 μM acyl-CoA; mean ± SD, three experiments; read-out: KD, dissociation constant
Method: ITC was conducted with a MicroCal iTC200 system (GE Healthcare) at 25°C in 10 mM sodium phosphate (pH 7) by 20 injections of 1.8-μL acyl-CoAs (200 μM; Avanti Polar Lipids Inc., Alabaster, AL, USA) into the sample cell with 15 μM purified (His)6-GmACBP4.1. Each injection lasted 4 s at 150-s intervals with a stirring speed of 1,000 rpm. Nonspecific heat effects were estimated and corrected after saturation. The baseline was adjusted, and the data were fitted into a single-site binding model using the Origin version 7.0 software (OriginLab).
Supplemental Table 1. Binding constants and thermodynamic parameters for (His)6-GmACBP4.133–354 interaction with acyl-CoAs. (Supports Figure 5A) […]
Isothermal titration calorimetry analysis was performed by titration of 250 μL of 15 μM (His)6-GmACBP4.133–354 with […]
from three independent experiments. n, stoichiometry (number of ligand sites per protein); KD, dissociation constant; ∆H, enthalpy change; −T∆S, entropy change; ∆G, Gibbs free energy.

AtACBP1 = biological target: AtACBP1; parameters: method as in Xue et al., 2014; conditions: ref Xue et al., 2014; cited from earlier work
(His)6-GmACBP4.1_33–354 [4] = assay: Liposome association assay for PA binding; parameters: species or system soybean; conditions: PA:di-16:0-PC liposomes, 0–100% (w/w) PA
(His)6-GmACBP4.1_33–354 [5] = assay: Protein–lipid overlay assay; assay type: binding, soybean; conditions: commercial strips and PA-spotted nitrocellulose strips; 0.5 μg mL−1 protein
VLXB:StrepII [6] = biological target: T1, VLXB:StrepII (soybean, UniProt A0A0R0G554 1-853); assay: cell-based or functional assay
T1 sequence (looked up): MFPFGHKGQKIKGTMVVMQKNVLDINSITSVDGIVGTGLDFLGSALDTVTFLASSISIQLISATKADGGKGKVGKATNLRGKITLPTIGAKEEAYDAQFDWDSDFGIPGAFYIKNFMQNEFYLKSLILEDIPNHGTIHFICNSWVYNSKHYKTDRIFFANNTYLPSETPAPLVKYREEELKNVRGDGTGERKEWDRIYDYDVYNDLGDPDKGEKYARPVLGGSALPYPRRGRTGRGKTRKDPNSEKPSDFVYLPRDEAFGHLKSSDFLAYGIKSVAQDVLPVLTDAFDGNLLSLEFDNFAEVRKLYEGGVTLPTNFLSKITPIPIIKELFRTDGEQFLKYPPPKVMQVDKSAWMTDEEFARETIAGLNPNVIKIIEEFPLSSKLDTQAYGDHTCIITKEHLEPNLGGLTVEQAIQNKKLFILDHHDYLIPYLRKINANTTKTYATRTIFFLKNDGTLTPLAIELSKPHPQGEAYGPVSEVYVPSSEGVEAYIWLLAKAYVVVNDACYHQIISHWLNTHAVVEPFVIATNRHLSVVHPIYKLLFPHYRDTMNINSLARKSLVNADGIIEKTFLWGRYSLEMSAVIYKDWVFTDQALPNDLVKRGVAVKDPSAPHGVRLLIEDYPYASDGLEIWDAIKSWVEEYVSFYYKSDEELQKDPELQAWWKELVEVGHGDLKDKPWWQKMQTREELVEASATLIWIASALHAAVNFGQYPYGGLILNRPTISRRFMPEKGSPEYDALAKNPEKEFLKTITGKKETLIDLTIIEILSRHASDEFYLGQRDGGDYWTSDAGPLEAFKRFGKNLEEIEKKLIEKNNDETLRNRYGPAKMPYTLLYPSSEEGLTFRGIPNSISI

VLXB:StrepII [7] = biological target: T1, VLXB:StrepII; assay: pull-down; Strep-Tactin XT resins with prebound VLXB:StrepII or GmPLDα1:StrepII (0.5 μM) agitated with (His)6-GmACBP4.1(33-354) (0.5 μM) and acyl-CoAs (0, 12.5, 25, 50, 100 μM) in 0.1 M Tris-HCl pH 7, 0.15 M NaCl, 1 mM EDTA, 0.05% Triton X-100 at 4°C for 2 h; eluted with 50 mM biotin; immunoblot with anti-ACBP3.1 antibodies; conditions: both partners purified
GmPLDα1:StrepII = biological target: T2, GmPLDα1:StrepII (soybean, UniProt I1KH24 1-809); assay: as above; conditions: both partners purified
T2 construct: GmPLDα1, soybean phospholipase Dα1 (Glyma.07G031100), ORF; In pRSETA (pGM1032); the methods call these proteins (His)6/StrepII-tagged; also called soybean PHOSPHOLIPASE Dα1; source: E. coli, purified (HisTrap HP, Strep-Tactin XT); not shown: StrepII, C-terminal, kept
T2 sequence (looked up): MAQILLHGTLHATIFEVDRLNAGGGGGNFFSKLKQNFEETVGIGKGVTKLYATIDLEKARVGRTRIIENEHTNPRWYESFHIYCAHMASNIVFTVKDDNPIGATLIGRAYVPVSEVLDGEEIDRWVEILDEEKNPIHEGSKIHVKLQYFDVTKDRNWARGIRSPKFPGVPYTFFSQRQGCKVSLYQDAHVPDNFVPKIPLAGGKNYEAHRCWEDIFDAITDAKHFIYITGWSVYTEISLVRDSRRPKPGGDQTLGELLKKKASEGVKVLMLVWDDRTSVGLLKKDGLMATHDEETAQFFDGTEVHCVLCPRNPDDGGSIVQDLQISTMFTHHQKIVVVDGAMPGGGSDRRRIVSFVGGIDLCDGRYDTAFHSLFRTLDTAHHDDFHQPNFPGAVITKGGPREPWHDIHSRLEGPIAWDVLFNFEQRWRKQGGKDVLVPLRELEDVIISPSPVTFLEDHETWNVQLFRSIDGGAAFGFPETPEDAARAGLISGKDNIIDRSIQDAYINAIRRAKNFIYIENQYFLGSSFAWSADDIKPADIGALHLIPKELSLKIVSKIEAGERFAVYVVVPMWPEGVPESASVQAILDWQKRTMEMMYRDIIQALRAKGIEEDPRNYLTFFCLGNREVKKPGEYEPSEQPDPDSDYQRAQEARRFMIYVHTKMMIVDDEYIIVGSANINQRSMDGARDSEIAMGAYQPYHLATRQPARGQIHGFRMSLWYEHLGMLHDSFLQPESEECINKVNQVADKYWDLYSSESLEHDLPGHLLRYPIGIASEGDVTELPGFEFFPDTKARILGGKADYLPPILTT

[8] = acyl-CoA 12.5–100 μM, versus control without acyl-CoA

increase in WT binding with GmPLDα1:StrepII [1]: up to nine-fold | increase in WT binding with VLXB:StrepII [2, 8]: negligible | Kd ((His)6-GmACBP4.1_33–354 [3]): 800 ± 100 nM
Molecule: CCCCCCCCCCCCCCCC(=O)SCCNC(=O)CCNC(=O)[C@H](O)C(C)(C)COP(=O)(O)OP(=O)(O)OC[C@H]1O[C@@H](n2cnc3c(N)ncnc32)[C@H](O)[C@@H]1OP(=O)(O)O [C16:0-CoA]

increase in WT binding with GmPLDα1:StrepII [1]: up to nine-fold | increase in WT binding with VLXB:StrepII [2, 8]: negligible | Kd ((His)6-GmACBP4.1_33–354 [3]): 680 ± 80 nM
Molecule: CCCCCCCC/C=C\CCCCCCCC(=O)SCCNC(=O)CCNC(=O)[C@H](O)C(C)(C)COP(=O)(O)OP(=O)(O)OC[C@H]1O[C@@H](n2cnc3c(N)ncnc32)[C@H](O)[C@@H]1OP(=O)(O)O [C18:1-CoA]

IC50 of in vitro LOX activity of 100 nM VLXB:StrepII after incubation with 0.1-300 nM (His)6-GmACBP4.1(33-354) WT and 10 µM C18:2-CoA (VLXB:StrepII [6]): 8.5 nM | IC50 of in vitro LOX activity of 100 nM VLXB:StrepII after incubation with 0.1-300 nM (His)6-GmACBP4.1(33-354) WT and 10 µM C18:3-CoA (VLXB:StrepII [6]): 5 nM | fold increase of binding with 100 µM C18:3-CoA against no acyl-CoA (VLXB:StrepII [7]): 9 fold | fold increase of binding with C18:2-CoA against no acyl-CoA (VLXB:StrepII [7]): ≤ 4 fold | fold increase of binding with C16:0/C18:1-CoAs against no acyl-CoA (GmPLDα1:StrepII): ≤ 9 fold
B1: (His)6-GmACBP4.1_(33–354) (domain or fragment, UniProt I1KAV2 33-354, looked up)
chain: DDNLTVTRASAAETTATRAEQFEDALKRDDAVSSDARPFEEESVVAEHGSVRIDSDGDYDDDWEGVESTELDEAFSAATAFVAAAAADRLSQKVSSDVQLQLYGLYKIATEGPCSTPQPSPLKMTARAKWQAWQKLGAMPPEDAMQKYIDIVTEIYPTWLDGSSLRNKSGDSGGHGSEAKGPMGPVFSTFVYEEEYGSDSQMEAIHGFAREGDMANLLKCIENGVSMNLKDSEGRTPLHWAVDRGHLNVTELLVGKNADVNAKDNDGQTPLHYAVTCEREAIAEYLVKHNADIYSKDNDGSSPRDICESNWPCMQHVGEEVN
notes: In pRSETA (pGM963); also called WT; recombinant GmACBP4.1 without the TM domain; source: E. coli, purified (HisTrap HP, HiTrap Q HP); not shown: (His)6, N-terminal, kept

More lines, now with the values behind:

Molecule: CC/C=C\C/C=C\C/C=C\CCCCCCCC(=O)SCCNC(=O)CCNC(=O)[C@H](O)C(C)(C)COP(=O)(O)OP(=O)(O)OC[C@H]1O[C@@H](n2cnc3c(N)ncnc32)[C@H](O)[C@@H]1OP(=O)(O)O [C18:3-CoA, linolenoyl-CoA]
increase in WT binding with GmPLDα1:StrepII [1]: did not influence | increase in WT binding with VLXB:StrepII ([2]; 100 µM acyl-CoA): nine-fold | Kd ((His)6-GmACBP4.1_33–354 [3]): 1170 nM and 900 to 1200 nM | Kd (AtACBP1): 400 to 800 nM

Molecule: CCCCCCCCCCCCCC(=O)OC[C@H](COP(=O)(O)O)OC(=O)CCCCCCCCCCCCC [di-14:0-PA]
descending order of affinity to the WT (liposome association) ((His)6-GmACBP4.1_33–354 [4]): di-16:0-PA ≈ di-18:1-PA > di-18:0-PA > di-14:0-PA | binding on lipid filter strips ((His)6-GmACBP4.1_33–354 [5]): lower affinity

Molecule: CCCCCCCCCCCCCCCC(=O)OC[C@H](COP(=O)([O-])OCC[N+](C)(C)C)OC(=O)CCCCCCCCCCCCCCC [di-16:0-phosphatidylcholine]
binding on lipid filter strips ((His)6-GmACBP4.1_33–354 [5]): did not interact

Molecule: CCCCCCCCCCCCCCCCCC(=O)OC[C@H](COP(=O)(O)O)OC(=O)CCCCCCCCCCCCCCCCC [di-18:0-PA]
descending order of affinity to the WT (liposome association) ((His)6-GmACBP4.1_33–354 [4]): di-16:0-PA ≈ di-18:1-PA > di-18:0-PA > di-14:0-PA | binding on lipid filter strips ((His)6-GmACBP4.1_33–354 [5]): lower affinity

Molecule: CCCCCCCCC=CCCCCCCCC(=O)OCC(COP(=O)(O)O)OC(=O)CCCCCCCC=CCCCCCCCC (stereo not drawn) [di-18:1-PA]
descending order of affinity to the WT (liposome association) ((His)6-GmACBP4.1_33–354 [4]): di-16:0-PA ≈ di-18:1-PA > di-18:0-PA > di-14:0-PA
